Earlier results in patent US9650678B2, “Methods for identifying an increased risk of anthracycline-related cardiotoxicity” (CITY OF HOPE, priority 2012, dated 2017).

Tests used:
[1] = factor that reflects the drug's cardiotoxic potential
[2] = system: patients; conditions: package insert, doxorubicin hydrochloride injection (Teva)
[3] = system: CBR3
[4] = molecular target: T1, CBR1 (Homo sapiens, UniProt P16152)
T1 sequence (P16152 1-277): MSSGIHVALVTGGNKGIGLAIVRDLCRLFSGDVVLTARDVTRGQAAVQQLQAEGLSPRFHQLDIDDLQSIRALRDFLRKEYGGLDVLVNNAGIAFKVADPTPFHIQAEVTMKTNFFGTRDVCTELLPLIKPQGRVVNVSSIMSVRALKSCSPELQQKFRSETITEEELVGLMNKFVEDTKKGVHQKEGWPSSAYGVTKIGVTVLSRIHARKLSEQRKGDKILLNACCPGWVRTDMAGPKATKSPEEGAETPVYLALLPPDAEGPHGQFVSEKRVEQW

Row | SMILES | Conversion factor to Doxorubicin Isotoxic Dose [1] | total cumulative dose in excess of which risk of potentially fatal congestive heart failure increases rapidly [2] | synthesis of doxorubicinol, times faster [3] [times] | rate of doxorubicinol synthesis, fold higher [4] [fold]
1 | COc1cccc2c1C(=O)c1c(O)c3c(c(O)c1C2=O)C[C@@](O)(C(C)=O)C[C@@H]3O[C@H]1C[C@H](N)[C@H](O)[C@H](C)O1 [Daunomycin] | 0.833 (⅚) | – | – | –
2 | COc1cccc2c1C(=O)c1c(O)c3c(c(O)c1C2=O)C[C@@](O)(C(=O)CO)C[C@@H]3O[C@H]1C[C@H](N)[C@H](O)[C@H](C)O1 [Doxorubicin] | 1 | greater than 400 mg/m^2 | – | –
3 | COc1cccc2c1C(=O)c1c(O)c3c(c(O)c1C2=O)C[C@@](O)(C(=O)CO)C[C@@H]3O[C@H]1C[C@H](N)[C@@H](O)[C@H](C)O1 [Epirubicin] | 0.67 (⅔) | – | – | –
4 | CC(=O)[C@]1(O)Cc2c(O)c3c(c(O)c2[C@@H](O[C@H]2C[C@H](N)[C@H](O)[C@H](C)O2)C1)C(=O)c1ccccc1C3=O [Idarubicin] | 5 | – | – | –
5 | COc1cccc2c1C(=O)c1c(O)c3c(c(O)c1C2=O)C[C@@](O)([C@@H](O)CO)C[C@@H]3O[C@H]1C[C@H](N)[C@H](O)[C@H](C)O1 [doxorubicinol] | – | – | 2.6 | 1.5
